Laboratory results: patent publication US20220230723A1, “Electronically Supervised Administration of a Pharmaceutical Composition” (Celon Pharma S.A., priority 2019, published 2022)
Structures can show the parent of a compound that is named as a salt.

Columns and labels:
[1] = cited from earlier work
[2] = cited from earlier work; remark: listed apart in the source
[3] = cited from earlier work; remark: listed apart in the source
[4] = nebulized saline solution, inhalation; cited from earlier work
[5] = Literature pharmacokinetics after intravenous infusion; type: in vivo; details: human, plasma, 0.2 mg/kg; 0.20 mg/kg 40 minutes intravenous infusion, predicted on the basis of literature data
Method: Administration route with currently expected minimum level of metabolites is an intravenous one. After intravenous infusion of racemic ketamine at 0.5 mg/kg for 40 minutes, the parent drug maintains its systemic concentration about 200 ng/ml for about 40 minutes, afterwards the concentration falls down quickly with a half-period below 2 hours. Simultaneously, norketamine reaches its maximum concentration at the level of 10-20% of ketamine concentration. The percentage of area-under-curve (AUC) norketamine to ketamine is about 20-40%.

NMDA receptor = details: cited from earlier work
[6] = after intravenous infusion of racemic ketamine
[7] = after oral administration of ketamine

Structure (SMILES): CNC1(c2ccccc2Cl)CCCCC1=O (racemic) [ketamine]
- half-period of concentration fall ([1]; after intravenous infusion 0.5 mg/kg for 40 minutes): below 2 hours
- systemic concentration of parent drug ([1]; intravenous infusion 0.5 mg/kg for 40 minutes, maintained about 40 minutes): about 200 ng/ml
- bioavailability ([2]; orally administered): 16-20%
- share of patients with treatment-resistant depression responsive to treatment ([3]; human, in vivo): about ⅔

Structure (SMILES): CN[C@]1(c2ccccc2Cl)CCCCC1=O [esketamine hydrochloride]
- inhaled bioavailability [4]: reduced due to both dose-independent and dose-dependent impairment of pulmonary uptake

Structure (SMILES): CN[C@]1(c2ccccc2Cl)CCCCC1=O [esketamine]
- concentration at 40 min [5]: 60 to 100 ng/mL
- antidepressant effects ([3]; TRD patients, 40-minute i.v. infusion of 0.20 mg/kg or 0.40 mg/kg (Singh et al.)): rapid onset of robust antidepressant effects

Structure (SMILES): NC1(c2ccccc2Cl)CCCCC1=O (stereo not drawn) [norketamine]
- maximum concentration as % of ketamine concentration [1, 6]: 10-20%
- percentage of AUC norketamine to ketamine [1, 6]: 20-40%
- AUC for norketamine relative to ketamine [2, 7]: exceeding 1000%
- norketamine level as % of ketamine level [2, 7]: 500-1000%
- activity on NMDA receptor relative to ketamine (NMDA receptor): many times less active than ketamine
